Results published in patent publication US8247211B2, “Glycopeptide antibiotics” (American Cyanamid Company, priority 2001, dated 2012).

Experiments:
Experiment in all cases: In vitro antibacterial evaluation: minimum inhibitory concentration (MIC), broth dilution method
Assay type in all cases: cell-based
Enterococcus sp. = conditions: 18 hours at 35° C.
Procedure, shortened: (§1)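 Inoculum: 5×10^5 CFU/mL. Range: 64-0.06 μg/mL. Medium: Muller-Hinton II […]; NCCLS M7-A2 broth dilution. Endpoint: lowest concentration inhibiting growth. Strains include methicillin-, penicillin- and/or vancomycin-resistant clinical isolates.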

Escherichia coli = conditions: 18 hours at 35° C.
Procedure, shortened: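 Susceptibility determined by NCCLS-recommended broth dilution (M7-A2), Muller-Hinton II […]. Concentration span 64-0.06 μg/mL, inoculum 5×10^5 CFU/mL. Isolates include strains resistant to methicillin, penicillin and/or vancomycin.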

Staphylococcus sp. = conditions: for MIC Staphylococcus aureus (ATCC 29213): strain ATCC 29213; for MIC Staphylococcus aureus (GC 1131): strain GC 1131; for MIC Staphylococcus aureus (GC 3051): strain GC 3051; for MIC Staphylococcus aureus (GC 3053): strain GC 3053; for MIC Staphylococcus aureus (GC 4541): strain GC 4541; for MIC Staphylococcus aureus (GC 4542): strain GC 4542; for MIC Staphylococcus aureus-SMITH (GC 4543): strain GC 4543; for MIC Staphylococcus aureus (GC 4544): strain GC 4544; for MIC Staphylococcus aureus (GC 4545): strain GC 4545; for MIC Staphylococcus haemolyticus (GC 4546): strain GC 4546; for MIC Coagulase Negative Staphylococcus (GC 4547): strain GC 4547; for MIC Coagulase Negative Staphylococcus (GC 4548): strain GC 4548; for MIC Coagulase Negative Staphylococcus (GC 4549): strain GC 4549; for MIC Coagulase Negative Staphylococcus (GC 4551): strain GC 4551
Procedure, shortened: as §1

Streptococcus sp. = conditions: 18 hours at 35° C.
Procedure, shortened: as §1

[1] = Enterococcus faecalis (ATCC 29212)
[2] = Enterococcus faecalis (GC 2242)
[3] = Enterococcus faecalis (GC 2691)
[4] = Enterococcus faecalis (GC 3059)
[5] = Enterococcus faecalis (GC 4552)
[6] = Enterococcus faecalis (GC 4553)
[7] = Enterococcus faecalis (GC 4554)
[8] = Enterococcus faecalis (GC 6189)
[9] = broth dilution, inoculum 5×10^5 CFU/mL
[10] = Streptococcus agalactiae (GC 4564)
[11] = Streptococcus pneumoniae (ATCC 6301)
[12] = Streptococcus pneumoniae (GC 1894)
[13] = Streptococcus pneumoniae (GC 4565)
[14] = Streptococcus pyogenes (GC 4563)

CC(c1ccccc1)C1NC(=O)CNC(=O)C(CO)NC(=O)C(C(O)C2CNC(=N)N2C2OC(CO)C(O)C(O)C2O)NC(=O)C(C(O)C2CNC(=N)N2)NC(=O)C(Cc2ccc(OC3OC(CO)C(OC4OC5COC(C)(c6ccc(F)cc6)OC5C(O)C4O)C(O)C3O)cc2)NC1=O (stereo not drawn) [Example 216, Cyclo[glycyl-β-methylphenylalanyl-O-[4-O-[4,6-O-(4-fluoro-α-methylbenzylidene)hexopyranosyl]hexopyranosyl]tyrosyl-3-(2-iminoimidazolidin-4-yl)seryl-3-(3-hexopyranosyl-2-iminoimidazolidin-4-yl)serylseryl]]
0.25 mg/L: MIC Streptococcus pneumoniae (ATCC 6301) (Streptococcus sp.; [11]) | MIC Streptococcus pneumoniae (GC 4565) (Streptococcus sp.; [13]) | MIC Streptococcus pneumoniae (ATCC 6301) (Streptococcus sp.; [9]) | MIC Streptococcus pneumoniae (GC 4565) (Streptococcus sp.; [9])
16 mg/L: MIC Escherichia coli (GC 4559) (Escherichia coli)
1 mg/L: MIC Staphylococcus aureus (GC 4541) (Staphylococcus sp.) | MIC Staphylococcus aureus (GC 4542) (Staphylococcus sp.) | MIC Staphylococcus aureus (GC 4545) (Staphylococcus sp.) | MIC Staphylococcus haemolyticus (GC 4546) (Staphylococcus sp.) | MIC Coagulase Negative Staphylococcus (GC 4548) (Staphylococcus sp.) | MIC Coagulase Negative Staphylococcus (GC 4549) (Staphylococcus sp.) | MIC Coagulase Negative Staphylococcus (GC 6257) (Staphylococcus sp.; strain GC 6257)
0.5 mg/L: MIC Streptococcus agalactiae (GC 4564) (Streptococcus sp.; [10]) | MIC Streptococcus pyogenes (GC 4563) (Streptococcus sp.; [14]) | MIC Streptococcus agalactiae (GC 4564) (Streptococcus sp.; [9]) | MIC Streptococcus pyogenes (GC 4563) (Streptococcus sp.; [9])
4 mg/L: MIC Enterococcus avium (GC 4558) (Enterococcus sp.; Enterococcus avium (GC 4558)) | MIC Enterococcus faecalis (ATCC 29212) (Enterococcus sp.; [1]) | MIC Enterococcus faecalis (GC 2242) (Enterococcus sp.; [2]) | MIC Enterococcus faecalis (GC 2691) (Enterococcus sp.; [3]) | MIC Enterococcus faecalis (GC 3059) (Enterococcus sp.; [4]) | MIC Enterococcus faecalis (GC 4552) (Enterococcus sp.; [5]) | MIC Enterococcus faecalis (GC 4553) (Enterococcus sp.; [6]) | MIC Enterococcus faecalis (GC 4554) (Enterococcus sp.; [7]) | MIC Enterococcus faecalis (GC 6189) (Enterococcus sp.; [8]) | MIC Enterococcus faecium (GC 2243) (Enterococcus sp.; Enterococcus faecium (GC 2243)) | MIC Enterococcus faecium (GC 4556) (Enterococcus sp.; Enterococcus faecium (GC 4556)) | MIC Enterococcus faecium (GC 4557) (Enterococcus sp.; Enterococcus faecium (GC 4557)) | MIC Enterococcus avium (GC 4558) (Enterococcus sp.; [9]) | MIC Enterococcus faecalis (ATCC 29212) (Enterococcus sp.; [9]) | MIC Enterococcus faecalis (GC 2242) (Enterococcus sp.; [9]) | MIC Enterococcus faecalis (GC 2691) (Enterococcus sp.; [9]) | MIC Enterococcus faecalis (GC 3059) (Enterococcus sp.; [9]) | MIC Enterococcus faecalis (GC 4552) (Enterococcus sp.; [9]) | MIC Enterococcus faecalis (GC 4553) (Enterococcus sp.; [9]) | MIC Enterococcus faecalis (GC 4554) (Enterococcus sp.; [9]) | MIC Enterococcus faecalis (GC 6189) (Enterococcus sp.; [9]) | MIC Enterococcus faecium (GC 2243) (Enterococcus sp.; [9]) | MIC Enterococcus faecium (GC 4556) (Enterococcus sp.; [9]) | MIC Enterococcus faecium (GC 4557) (Enterococcus sp.; [9])
2 mg/L: MIC Escherichia coli (GC 4560) (Escherichia coli) | MIC Staphylococcus aureus (ATCC 29213) (Staphylococcus sp.) | MIC Staphylococcus aureus (GC 1131) (Staphylococcus sp.) | MIC Staphylococcus aureus (GC 3051) (Staphylococcus sp.) | MIC Staphylococcus aureus (GC 3053) (Staphylococcus sp.) | MIC Staphylococcus aureus-SMITH (GC 4543) (Staphylococcus sp.) | MIC Staphylococcus aureus (GC 4544) (Staphylococcus sp.) | MIC Coagulase Negative Staphylococcus (GC 4547) (Staphylococcus sp.) | MIC Coagulase Negative Staphylococcus (GC 4551) (Staphylococcus sp.)
<0.06 mg/L: MIC Streptococcus pneumoniae (GC 1894) (Streptococcus sp.; [12]) | MIC Streptococcus pneumoniae (GC 1894) (Streptococcus sp.; [9])
32 mg/L: MIC Escherichia coli (ATCC 25922) (Escherichia coli)

CC(c1ccccc1)C1NC(=O)CNC(=O)C(CO)NC(=O)C(C(O)C2CNC(=N)N2C2OC(CO)C(O)C(O)C2O)NC(=O)C(C(O)C2CNC(=N)N2)NC(=O)C(Cc2ccc(OC3OC(CO)C(OC4OC5COC6(CCSCC6)OC5C(O)C4O)C(O)C3O)cc2)NC1=O (stereo not drawn) [Example 217, Cyclo[glycyl-β-methylphenylalanyl-O-[4-O-[4,6-O-(tetrahydrothiopyran-4-ylidene)hexopyranosyl]hexopyranosyl]tyrosyl-3-(2-iminoimidazolidin-4-yl)seryl-3-(3-hexopyranosyl-2-iminoimidazolidin-4-yl)serylseryl]]
16 mg/L: MIC Enterococcus avium (GC 4558) (Enterococcus sp.; Enterococcus avium (GC 4558)) | MIC Enterococcus faecalis (ATCC 29212) (Enterococcus sp.; [1]) | MIC Enterococcus faecalis (GC 2242) (Enterococcus sp.; [2]) | MIC Enterococcus faecalis (GC 2691) (Enterococcus sp.; [3]) | MIC Enterococcus faecalis (GC 4552) (Enterococcus sp.; [5]) | MIC Enterococcus faecalis (GC 6189) (Enterococcus sp.; [8]) | MIC Enterococcus faecium (GC 2243) (Enterococcus sp.; Enterococcus faecium (GC 2243)) | MIC Enterococcus faecium (GC 4556) (Enterococcus sp.; Enterococcus faecium (GC 4556)) | MIC Enterococcus avium (GC 4558) (Enterococcus sp.; [9]) | MIC Enterococcus faecalis (ATCC 29212) (Enterococcus sp.; [9]) | MIC Enterococcus faecalis (GC 2242) (Enterococcus sp.; [9]) | MIC Enterococcus faecalis (GC 2691) (Enterococcus sp.; [9]) | MIC Enterococcus faecalis (GC 4552) (Enterococcus sp.; [9]) | MIC Enterococcus faecalis (GC 6189) (Enterococcus sp.; [9]) | MIC Enterococcus faecium (GC 2243) (Enterococcus sp.; [9]) | MIC Enterococcus faecium (GC 4556) (Enterococcus sp.; [9])
32 mg/L: MIC Enterococcus faecalis (GC 3059) (Enterococcus sp.; [4]) | MIC Enterococcus faecalis (GC 4553) (Enterococcus sp.; [6]) | MIC Enterococcus faecalis (GC 4554) (Enterococcus sp.; [7]) | MIC Enterococcus faecalis (GC 3059) (Enterococcus sp.; [9]) | MIC Enterococcus faecalis (GC 4553) (Enterococcus sp.; [9]) | MIC Enterococcus faecalis (GC 4554) (Enterococcus sp.; [9]) | MIC Escherichia coli (GC 4559) (Escherichia coli)
0.25 mg/L: MIC Streptococcus pneumoniae (GC 1894) (Streptococcus sp.; [12]) | MIC Streptococcus pneumoniae (GC 1894) (Streptococcus sp.; [9])
0.5 mg/L: MIC Streptococcus pneumoniae (GC 4565) (Streptococcus sp.; [13]) | MIC Streptococcus pneumoniae (GC 4565) (Streptococcus sp.; [9])
2 mg/L: MIC Escherichia coli (GC 4560) (Escherichia coli) | MIC Staphylococcus aureus-SMITH (GC 4543) (Staphylococcus sp.) | MIC Staphylococcus haemolyticus (GC 4546) (Staphylococcus sp.) | MIC Coagulase Negative Staphylococcus (GC 4549) (Staphylococcus sp.) | MIC Streptococcus agalactiae (GC 4564) (Streptococcus sp.; [10]) | MIC Streptococcus agalactiae (GC 4564) (Streptococcus sp.; [9])
4 mg/L: MIC Staphylococcus aureus (ATCC 29213) (Staphylococcus sp.) | MIC Staphylococcus aureus (GC 1131) (Staphylococcus sp.) | MIC Staphylococcus aureus (GC 3051) (Staphylococcus sp.) | MIC Staphylococcus aureus (GC 4541) (Staphylococcus sp.) | MIC Staphylococcus aureus (GC 4542) (Staphylococcus sp.) | MIC Staphylococcus aureus (GC 4545) (Staphylococcus sp.) | MIC Coagulase Negative Staphylococcus (GC 4547) (Staphylococcus sp.)
8 mg/L: MIC Enterococcus faecium (GC 4557) (Enterococcus sp.; Enterococcus faecium (GC 4557)) | MIC Enterococcus faecium (GC 4557) (Enterococcus sp.; [9]) | MIC Staphylococcus aureus (GC 3053) (Staphylococcus sp.) | MIC Staphylococcus aureus (GC 4544) (Staphylococcus sp.) | MIC Coagulase Negative Staphylococcus (GC 4551) (Staphylococcus sp.)
64 mg/L: MIC Escherichia coli (ATCC 25922) (Escherichia coli)
1 mg/L: MIC Coagulase Negative Staphylococcus (GC 4548) (Staphylococcus sp.) | MIC Streptococcus pneumoniae (ATCC 6301) (Streptococcus sp.; [11]) | MIC Streptococcus pyogenes (GC 4563) (Streptococcus sp.; [14]) | MIC Streptococcus pneumoniae (ATCC 6301) (Streptococcus sp.; [9]) | MIC Streptococcus pyogenes (GC 4563) (Streptococcus sp.; [9])
